Experimental data from PubChem BioAssay (NCI).
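Results reflect a 48-hour exposure of cells in 96-well plates to compound at five concentrations. TGI: concentration producing complete growth inhibition.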

Experiments:
Experiment in all cases: NCI-60 cell line screen, 48 h
[1] = test system: RXF 393 renal
[2] = test system: NCI-H23 lung
[3] = test system: 786-0 renal
[4] = test system: HCC-2998 colon
[5] = test system: M14 melanoma
[6] = test system: SN12C renal
[7] = test system: BT-549 breast
[8] = test system: SW-620 colon
[9] = test system: IGROV1 ovarian
[10] = test system: DU-145 prostate
[11] = test system: MDA-MB-435

Structure (SMILES)	TGI [1] [µM]	TGI [2] [µM]	TGI [3] [µM]	TGI [4] [µM]	TGI [5] [µM]	TGI [6] [µM]	TGI [7] [µM]	TGI [8] [µM]	TGI [9] [µM]	TGI [10] [µM]	TGI [11] [µM]
N=C(N)n1[nH]c2c(c1=O)CCC2	> 100	> 100	> 100	> 100	> 100	> 100	> 100	> 100	> 100	> 100	> 100
CCOC(=O)/C=C(/C(=O)OCC)n1c(=O)c(C)cn(C2CC(N=[N+]=[N-])C(CO)O2)c1=O (stereo not given)	57.2	> 100	72	31.4	> 100	> 100	> 100	34.1	> 100	> 100	> 100
CC(O)(c1ccccc1)c1nccc2ccccc12 (stereo not given)	> 100	> 100	> 100	> 100	> 100	> 100	> 100	> 100	> 100	> 100	39.2
O=C1c2ccccc2C(=O)N1C(=S)c1ccccc1	> 100	> 100	> 100	> 100	> 100	> 100	> 100	> 100	> 100	> 100	> 100
O=[N+]([O-])c1cccc2nc3ccccc3c(NCCC[N+]3([O-])CCCCC3)c12	2	0.622	3.34	0.272	2.95	1.55	1.53	> 34.8	6.33	1.9	0.44
O=C([C@H](O)[C@@H](O)c1ccc(Br)cc1)C12CC3CC(CC(C3)C1)C2	> 100	> 37.9	45.9	> 38.9	37.5	> 65.8	24	> 38.4	12.9	51.8	> 56.4
CC1CCC2c3c([nH]c4ccccc34)C3C(=O)N(C4CCCCC4)C(=O)C3C2C1 (stereo not given)	28.9	54.2	19.6	> 100	59.3	> 100	32.7	> 100	43.9	> 100	> 100
CN(N)C(=O)NCCCl	> 100	> 100	> 100	> 100	> 100	> 100	> 100	> 100	> 100	> 100	> 100
Cc1cccc2c(N)c3cccc(C(=O)NCC[N+](C)(C)Cc4sc(N5CCOCC5)nc4[N+](=O)[O-])c3nc12	20.8	15.3	6.24	3.41	15	> 100	40.8	> 100	> 100	> 100	35.2
N#CC1N(C(=O)c2ccc(F)cc2)c2ccccc2N1C(=O)c1ccc(F)cc1	> 100	> 100	> 100	> 100	> 100	> 100	77.3	> 100	> 100	> 100	> 100
CC(C)OC(=O)c1ccc(CCC2=CC(=O)C(Br)=CC2=O)cc1	31.2	26.2	30.2	31.9	31.2	31.1	16.8	29.2	27.8	63.3	32.9
Cc1nc2ccccc2c(=O)n1NC(=O)Cc1ccccc1	> 100	> 100	> 100	> 100	> 100	> 100	> 100	> 100	> 100	> 100	> 100
FC1CCN(C2(c3cccs3)CCCCC2)CC1	> 100	> 100	> 100	> 100	> 100	> 100	> 100	> 100	> 100	> 100	> 100
COC(=O)C1=C(OC(=O)/C(=C/c2ccc(Cl)cc2)c2ccccc2)C(C(=O)OC)[C@@]2(O)[C@@H](C(=O)OC)[C@H](C)C[C@@H]1[C@@H]2C(=O)OC (stereo not given in full)	> 100	> 100	> 100	> 100	> 100	> 100	> 100	> 100	> 100	> 100	> 100
CC[C@@]1(O)C(=O)OCc2c1cc1n(c2=O)Cc2c-1nc1ccccc1c2/C=N\NC(=O)C(N)CS (stereo not given in full)	10.2	21.1	> 100	> 100	10.5	> 22.8	> 100	> 100	> 85.3	6.76	> 100
